Results: patent US12568972B2, “Pyridazinol compounds and derivatives, preparation methods, herbicidal compositions and applications thereof” (Qingdao Kingagroot Chemical Compound Co., Ltd., priority 2018, dated 2026)

test system: Amaranthus retroflexus; test: Post-emergence test, weed control effect; format: in vivo; settings: Dose 3000 g/ha, after 3 weeks
Description: (§1) The activity level standard of harmful plant destruction (i.e. growth inhibition rate) is as follows: • Level 10: completely dead; • Level 9: above 90% growth inhibition rate; • Level 8: above 80% growth inhibition rate; • Level 7: above 70% growth inhibition rate; • Level 6: above 60% growth inhibition rate; • Level 5: above 50% growth inhibition rate; • Level 4: above 40% growth inhibition rate; • Level 3: above 30% growth inhibition rate; • Level 2: above 20% growth inhibition rate; • Level 1: below 20% growth inhibition rate; • Level 0: no effect.
(§2) The above described growth inhibition rates are fresh weight inhibition rates.
(§3) Experiment of post-emergence test: monocotyledonous and dicotyledonous weed seeds as well as main crop seeds (i.e., wheat, corn, rice, soybean, cotton, oilseed rape, millet and sorghum) were put into a plastic pot loaded with soil, then covered with 0.5-2 cm of soil, and the seeds were allowed to grow in good greenhouse environment. The test plants were treated at 2-3 leaf stage 2-3 weeks after sowing. The test compounds of the invention were dissolved in acetone respectively, then added with Tween-80 and diluted by a certain amount of water to give solutions with certain concentrations, and added with 80% vegetable oil methyl ester synergist at 1500 g/ha. The solution was sprayed to the plants with a sprayer. The plants were cultured for 3 weeks in the greenhouse.

| Compound | weed control effect, Amaranthus retroflexus (activity level) | weed control effect (activity level), Amaranthus retroflexus |
| --- | --- | --- |
| O=S(=O)(Oc1cc(C(F)(F)F)nnc1-c1ccc(F)cc1)c1ccc(Cl)cc1Cl [Compound 1-133] | 10 |  |
| Oc1cc(C(F)(F)F)nnc1-c1ccc2cc[nH]c2c1 [Compound 588] |  | 10 |
| COc1c(Cl)ccc(-c2nnc(C(F)(F)F)cc2O)c1F [Compound 741] |  | 10 |
| Oc1cc(C(F)(F)F)nnc1-c1cncc(Cl)c1Cl [Compound 996] |  | 10 |
| O=C(Oc1cc(C(F)(F)F)nnc1-c1ccc(Cl)c(Cl)c1)Sc1ccccc1 [Compound 1-102] | 10 |  |
| O=C(CCc1ccccc1)Oc1cc(C(F)(F)F)nnc1-c1ccc(F)c(F)c1 [Compound 1-98] | 10 |  |
| CC/C(CC(C)CC)=N/Oc1cc(C(F)(F)F)nnc1-c1ccnn1C (stereo not shown) [Compound 1-179] | 10 |  |
| O=C1CCCCN1C(=O)Oc1cc(C(F)(F)F)nnc1-c1ccc(F)cc1 [Compound 1-69] | 10 |  |
| Oc1cc(C(F)(F)F)nnc1-c1ccc(Br)nc1 [Compound 966] |  | 10 |
| Oc1cc(C(F)(F)F)nnc1-c1c(F)ccnc1Cl [Compound 1005] |  | 10 |
| O=C(COc1cc(C(F)(F)F)nnc1-c1ccc(F)cc1)c1ccccc1 [Compound 1-212] | 10 |  |
| Cn1ncc(C(F)(F)F)c1-c1nnc(C(F)(F)F)cc1O [Compound 823] |  | 10 |
| CCc1cccc(-c2nnc(C(F)(F)F)cc2OS(=O)(=O)CS(C)(=O)=O)c1 [Compound 1-123] | 10 |  |
| O=C(Oc1cc(C(F)(F)F)nnc1-c1ccc(F)c(F)c1)N1CCOCC1 [Compound 1-66] | 10 |  |
| CC(C)(C)SC(=O)Oc1cc(C(F)(F)F)nnc1-c1cc(Cl)ccc1Cl [Compound 1-47] | 10 |  |
| Oc1cc(C(F)(F)F)nnc1-c1ccc(C(F)(F)F)cc1Cl [Compound 769] |  | 10 |

test system: Chenopodiaceae; test: Post-emergence test, weed control effect; format: in vivo; settings: Dose 3000 g/ha, after 3 weeks
Description: as §1, §2, §3

| Compound | weed control effect, Chenopodiaceae (activity level) | weed control effect (activity level), Chenopodiaceae |
| --- | --- | --- |
| O=S(=O)(Oc1cc(C(F)(F)F)nnc1-c1ccc(F)cc1)c1ccc(Cl)cc1Cl [Compound 1-133] | 10 |  |
| Oc1cc(C(F)(F)F)nnc1-c1ccc2cc[nH]c2c1 [Compound 588] |  | 10 |
| COc1c(Cl)ccc(-c2nnc(C(F)(F)F)cc2O)c1F [Compound 741] |  | 10 |
| Oc1cc(C(F)(F)F)nnc1-c1cncc(Cl)c1Cl [Compound 996] |  | 10 |
| O=C(Oc1cc(C(F)(F)F)nnc1-c1ccc(Cl)c(Cl)c1)Sc1ccccc1 [Compound 1-102] | 10 |  |
| O=C(CCc1ccccc1)Oc1cc(C(F)(F)F)nnc1-c1ccc(F)c(F)c1 [Compound 1-98] | 10 |  |
| CC/C(CC(C)CC)=N/Oc1cc(C(F)(F)F)nnc1-c1ccnn1C (stereo not shown) [Compound 1-179] | 10 |  |
| O=C1CCCCN1C(=O)Oc1cc(C(F)(F)F)nnc1-c1ccc(F)cc1 [Compound 1-69] | 10 |  |
| Oc1cc(C(F)(F)F)nnc1-c1ccc(Br)nc1 [Compound 966] |  | 10 |
| Oc1cc(C(F)(F)F)nnc1-c1c(F)ccnc1Cl [Compound 1005] |  | 10 |
| O=C(COc1cc(C(F)(F)F)nnc1-c1ccc(F)cc1)c1ccccc1 [Compound 1-212] | 10 |  |
| Cn1ncc(C(F)(F)F)c1-c1nnc(C(F)(F)F)cc1O [Compound 823] |  | 10 |
| CCc1cccc(-c2nnc(C(F)(F)F)cc2OS(=O)(=O)CS(C)(=O)=O)c1 [Compound 1-123] | 10 |  |
| O=C(Oc1cc(C(F)(F)F)nnc1-c1ccc(F)c(F)c1)N1CCOCC1 [Compound 1-66] | 10 |  |
| CC(C)(C)SC(=O)Oc1cc(C(F)(F)F)nnc1-c1cc(Cl)ccc1Cl [Compound 1-47] | 10 |  |
| Oc1cc(C(F)(F)F)nnc1-c1ccc(C(F)(F)F)cc1Cl [Compound 769] |  | 10 |

test system: Veronica polita; test: Post-emergence test, weed control effect; format: in vivo; settings: Dose 3000 g/ha, after 3 weeks
Description: as §1, §2, §3

| Compound | weed control effect, Veronica polita (activity level) | weed control effect (activity level), Veronica polita |
| --- | --- | --- |
| O=S(=O)(Oc1cc(C(F)(F)F)nnc1-c1ccc(F)cc1)c1ccc(Cl)cc1Cl [Compound 1-133] | 10 |  |
| Oc1cc(C(F)(F)F)nnc1-c1ccc2cc[nH]c2c1 [Compound 588] |  | 10 |
| COc1c(Cl)ccc(-c2nnc(C(F)(F)F)cc2O)c1F [Compound 741] |  | 10 |
| Oc1cc(C(F)(F)F)nnc1-c1cncc(Cl)c1Cl [Compound 996] |  | 10 |
| O=C(Oc1cc(C(F)(F)F)nnc1-c1ccc(Cl)c(Cl)c1)Sc1ccccc1 [Compound 1-102] | 10 |  |
| O=C(CCc1ccccc1)Oc1cc(C(F)(F)F)nnc1-c1ccc(F)c(F)c1 [Compound 1-98] | 10 |  |
| CC/C(CC(C)CC)=N/Oc1cc(C(F)(F)F)nnc1-c1ccnn1C (stereo not shown) [Compound 1-179] | 10 |  |
| O=C1CCCCN1C(=O)Oc1cc(C(F)(F)F)nnc1-c1ccc(F)cc1 [Compound 1-69] | 10 |  |
| Oc1cc(C(F)(F)F)nnc1-c1ccc(Br)nc1 [Compound 966] |  | 10 |
| Oc1cc(C(F)(F)F)nnc1-c1c(F)ccnc1Cl [Compound 1005] |  | 10 |
| O=C(COc1cc(C(F)(F)F)nnc1-c1ccc(F)cc1)c1ccccc1 [Compound 1-212] | 10 |  |
| Cn1ncc(C(F)(F)F)c1-c1nnc(C(F)(F)F)cc1O [Compound 823] |  | 10 |
| CCc1cccc(-c2nnc(C(F)(F)F)cc2OS(=O)(=O)CS(C)(=O)=O)c1 [Compound 1-123] | 10 |  |
| O=C(Oc1cc(C(F)(F)F)nnc1-c1ccc(F)c(F)c1)N1CCOCC1 [Compound 1-66] | 10 |  |
| CC(C)(C)SC(=O)Oc1cc(C(F)(F)F)nnc1-c1cc(Cl)ccc1Cl [Compound 1-47] | 10 |  |
| Oc1cc(C(F)(F)F)nnc1-c1ccc(C(F)(F)F)cc1Cl [Compound 769] |  | 10 |

test system: Rorippa indica; test: Post-emergence test, weed control effect; format: in vivo; settings: Dose 3000 g/ha, after 3 weeks
Description: as §1, §2, §3

| Compound | weed control effect, Rorippa indica (activity level) | weed control effect (activity level), Rorippa indica |
| --- | --- | --- |
| O=S(=O)(Oc1cc(C(F)(F)F)nnc1-c1ccc(F)cc1)c1ccc(Cl)cc1Cl [Compound 1-133] | 10 |  |
| Oc1cc(C(F)(F)F)nnc1-c1ccc2cc[nH]c2c1 [Compound 588] |  | 10 |
| COc1c(Cl)ccc(-c2nnc(C(F)(F)F)cc2O)c1F [Compound 741] |  | 10 |
| Oc1cc(C(F)(F)F)nnc1-c1cncc(Cl)c1Cl [Compound 996] |  | 10 |
| O=C(Oc1cc(C(F)(F)F)nnc1-c1ccc(Cl)c(Cl)c1)Sc1ccccc1 [Compound 1-102] | 10 |  |
| O=C(CCc1ccccc1)Oc1cc(C(F)(F)F)nnc1-c1ccc(F)c(F)c1 [Compound 1-98] | 10 |  |
| CC/C(CC(C)CC)=N/Oc1cc(C(F)(F)F)nnc1-c1ccnn1C (stereo not shown) [Compound 1-179] | 10 |  |
| O=C1CCCCN1C(=O)Oc1cc(C(F)(F)F)nnc1-c1ccc(F)cc1 [Compound 1-69] | 10 |  |
| Oc1cc(C(F)(F)F)nnc1-c1ccc(Br)nc1 [Compound 966] |  | 10 |
| Oc1cc(C(F)(F)F)nnc1-c1c(F)ccnc1Cl [Compound 1005] |  | 10 |
| O=C(COc1cc(C(F)(F)F)nnc1-c1ccc(F)cc1)c1ccccc1 [Compound 1-212] | 10 |  |
| Cn1ncc(C(F)(F)F)c1-c1nnc(C(F)(F)F)cc1O [Compound 823] |  | 10 |
| CCc1cccc(-c2nnc(C(F)(F)F)cc2OS(=O)(=O)CS(C)(=O)=O)c1 [Compound 1-123] | 10 |  |
| O=C(Oc1cc(C(F)(F)F)nnc1-c1ccc(F)c(F)c1)N1CCOCC1 [Compound 1-66] | 10 |  |
| CC(C)(C)SC(=O)Oc1cc(C(F)(F)F)nnc1-c1cc(Cl)ccc1Cl [Compound 1-47] | 10 |  |
| Oc1cc(C(F)(F)F)nnc1-c1ccc(C(F)(F)F)cc1Cl [Compound 769] |  | 10 |
